The results in this text go back to patent US20250281621A1, “GPC3 APTAMERS AND VARIANTS AND USE THEREOF” (Guardian Therapeutics, LLC, priority 2020, published 2025).

Where two headings read alike, the source gives them in different places.

Data set [1] concerns the target T1, endogenously expressed GPC3 (Homo sapiens, UniProt P51654).
T1 construct: endogenously expressed GPC3 on different cancer cells; endogenous in cells; host or cells: Hep3B, HepG2, NCI-H446, Huh7
In words: Binding to cancer cells endogenously expressing GPC3 (Hep3B, HepG2, NCI-H446, Huh7). To be noted: data not shown; for need of refolding for maximal activity: binding to Hep3B cells. The source says:
Human hepatocellular Carcinoma cells HepG2 and Hep 3B overexpressing GPC3 were used to test the affinity of the selected positive clones. The binding studies indicate that several selected aptamer candidates (Table 3) from both libraries can bind human hepatocellular Carcinoma cells with high affinity.
A pool of partial randomization sequences from GRX8 was created and selected by cell-SELEX using GPC3^+ HEK293 cells. Those variants comprise various changes to the structural elements of GRX8, including changes to the external loop, stack, helix, hairpin loop and stem, etc. The clones were further screened with Hep3B cells and minimized based on original structure. The minimer #Min9 was further randomly mutagenized for sequence changes that can improve the binding affinity to GPC3. Another minimer variant (ID No.: GRX46)
with increased activity was further tested.

Data set [2] concerns the target T2, GPC3 (Homo sapiens, UniProt P51654). Nature of the data set: Binding kinetics of top minimers (Ka, Kd, KD). The source says:
(§1) The best minimer, GRX46, as well as combinations of variants with top activities were selected for further evaluation (Table 6).

Data set [3] has as its system Hep3B xenograft.
Data set [4] can be described thus: Melting curve analysis (thermofluorimetric analysis). Format: physicochemical. Particulars: compared to original clone F14, #Min4 and #Min5. Here is the method:
(§2) Binding of aptamer variants to GPC3 was tested with melting curve analysis (thermofluorimetric analysis). The control of experiment was carried out similarly with GPC3^− HEK293 cells.
A general note: In DSF a fluorescence change marks the thermal transition of the protein.

Data set [5] deals with T2, GPC3. Nature of the data set: GPC3 binding via flow cytometry using GPC3+ HEK293 cells. Set-up: expressed in transfected cells; host or cells: engineered HEK293 cells overexpressing GPC3. Particulars: for GPC3 binding activity (MFI): GPC3^+ HEK293 cells; for Kd: flow cytometry using GPC3+ HEK293 cells. Here is the method:
(§3) Two independent SELEX selections were carried to select clones that specifically bind to GPC3. Seven to nine rounds of nitrocellullose filter SELEX (Jhaveri et al., In vitro selection of RNA aptamers to a protein target by filter immobilization. Curr Protoc Nucleic Acid Chem. 2001, Chapter 9: Unit 9.3. doi: 10.1002/0471142700.nc0903s00. PMID: 18428881) were preformed using recombinant GPC3 protein. DNA clones from the final rounds of SELEX were sent for next generation sequencing and the data were analyzed for abundance. The highest abundant sequences (clones) were made via chemical synthesis and used in screening. The clones were screened for GPC3 binding via flow cytometry using engineered HEK293 cells overexpressing GPC3 (GPC3+ HEK293).
Additional variants surrounding the core motif were made in which stem 2 (as depicted in FIG. 1) is extended by 1 or 2 additional base pairs (GRX1187 and GRX2101 respectively) or replaced with an alternative stem and loop sequence (GRX958). Additionally, a construct was designed in which stem 2 is closed with a 4 base loop and stem 1 is open creating a new 5′ and 3′ end, GRX2102. […] (Table 7)
In general terms: A flow cytometer gives signals particle by particle.

In another data set the test system is GPC3^− HEK293 cells. Nature of the data set: Flow cytometry binding control with GPC3− HEK293 cells. The procedure:
as §3, §2

For data set [6], the target named is T2, GPC3. In words: Binding activity of minimers incl. refolding and freeze/thaw tests.
Source text: When the lineal GRX8 sequence is refolded, the binding activity of GRX8 improves.
as §1

Data set [7] concerns Hep3B xenograft. The source holds these as a separate data set.
Description: For each group, mice were treated with vehicle, CpG7909, or GRX51 once a day (QD) for 7 days.
At the end of the study, tumor tissues from each group were analyzed for immune cell populations by FAC Sorting.
The subject of data set [8] is Hep3B xenograft. Nature of the data set: GRX26 in Hep3B xenograft mouse model. To be noted: 28 Days; for Relative tumor volume growth (Day 28): vehicle = 1.00. The procedure:
(SEQ ID NO.: 32) (ID NO. #GRX26). GRX26 was tested in Hep3B xenograft mouse model for its activity in vivo (Table 8).

The target of the next data set is Glypican-3 (GPC3) (UniProt P51654;P51654 P51654:25-358,P51654:359-554). In words: flow; GPC3+ HEK293 cells. To be noted: tags: overexpressed in engineered HEK293 cells (GPC3+ HEK293).
Where [9] appears, read: 5 mg/kg, IP, QD/7Days, vehicle = 1.00.

As for “CGUCAUCGGGUUGCUACCCAAGGUCAGGUGACGAUGACG (listed as RNA, chemistry not given here) [GRX8 with QUAD6]”, the “need of refolding for maximal activity” value in [1] is recorded as “do not require refolding for maximal activity”. In the data set with GPC3 [2], the Ka turned out to be 201000 M⁻¹ s⁻¹.
Take Keytruda: the PD-1R inhibitor Keytruda: in the data set on Hep3B xenograft [3] (10 mg/kg), the “% of body weight loss” value was determined as 3.66%. For the same molecule, the “reduction of tumor size” value in the data set on Hep3B xenograft [3] (10 mg/kg once every 3 days i.p., 11 days) stood at 18%. The “Relative tumor volume growth (Day 11)” value with Hep3B xenograft [3] (10 mg/kg, vehicle = 1.00) came out at 0.82.
Regarding “GGCATCGGGTTGCTACCCAAGGACAAGAGTCGATGCC (listed as DNA, chemistry not fully specified) [Min11, 34]”, in [4], the thermal stability entry is on record as “thermally more stable”.
For “AAGCCATTACCGGGTTGCTACCCGAGGACAAGAGTCGATGATGCTT (listed as DNA, chemistry not fully specified) [Min3, 28]”, the “GPC3 binding activity (MFI)” value is reported as 377 with GPC3 [5] and 444 in the data set on GPC3^− HEK293 cells.
“CGUCAUCGGGUUGCUACCCAAGGUCAAGAGACGAUGACG (listed as RNA, chemistry not fully specified) [GRX46]”: the Ka with GPC3 [2] was determined as 55400 M⁻¹ s⁻¹. In addition, in the data set with GPC3 [6] (data not shown), the “binding activity and refolding behavior relative to GRX8” value is on record as “similar, enhanced binding activity”.
For the molecule “CGTCATCGGGTTGCTACCCAAGGACAAGAGTCGATGACG (listed as DNA, chemistry not fully specified) [Min9, 32]”, in [4], the thermal stability entry is “thermally more stable”.
On to “AAGCCATTACCGGGTTGCTACCCAAGGACAAGAGTCGATGATGCTT (listed as DNA, chemistry not fully specified) [Min1, 26]”, for which, in the data set with GPC3 [5], the “binding activity to GPC3^+ HEK293 cells compared to full sequence of clone F14” value is “significantly increased”. For the same molecule, the “GPC3 binding activity (MFI)” value came to 11403 in the data set with GPC3 [5] and 579 in the data set with GPC3^− HEK293 cells.
In the case of “GACUAGAUCGGGUUGCUACCCAAGCUCCGGUUCAGAUCGAUGGAGGAUCUAGUC (listed as RNA, chemistry not fully specified) [GRX958, 76]”, binding in the data set with GPC3 [5] was put at a Kd of 33.1 nM.
Still for that read-out and setting: next, “CGGGAGUCCUAGGAAGGACGGGUUGCUACCCAAGUCCCG (listed as RNA, chemistry not fully specified) [GRX2102, 79]”: 26.9 nM.
On to TCGTCGTTTTGTCGTTTTGTCGTT [CpG], for which, in the data set on Hep3B xenograft [7] (setting [9]), the “Relative tumor volume growth (Day 7)” value is given as 0.57 and the “Relative tumor volume growth (Day 18)” value came out at 0.47. In addition, the “final immune: tumor cell ratio relative to the vehicle control” value in the data set with Hep3B xenograft [7] (7-day on/7-day off daily dosing schedule) is reported as 1.51±0.95.
In the case of “AAGCATTACCGGGTTGCTACCCAAGGACAAGAGTCGATGATGCTT (listed as DNA, chemistry not fully specified) [Min2, 27]”, in the data set with GPC3 [5], the “binding activity to GPC3^+ HEK293 cells compared to full sequence of clone F14” value is listed as “significantly increased” and the “GPC3 binding activity (MFI)” value came to 16652. Further, the “GPC3 binding activity (MFI)” value in the data set with GPC3^− HEK293 cells was determined as 720.
In the data set with GPC3 [5], “CGUCAUCGGGUUGCUACCCAAGGCCCAGGAGGGCGAUGACG (listed as RNA, chemistry not given here) [GRX1187, 77]” registered a Kd of 64.2 nM.
As for “CGUCAUCGGGUUGCUACCCAAGGCCAGGAGGCGAUGACG (listed as RNA, chemistry not fully specified) [GRX49, 25]”, the “binding to endogenously expressed GPC3 on cancer cells” value in data set [1] (Hep3B, HepG2, NCI-H446, Huh7) is “selectively bind”. Further, the “need of refolding for maximal activity” value in [1] is given as “do not require refolding for maximal activity”. Moreover, the Ka with GPC3 [2] stood at 199000 M⁻¹ s⁻¹. The same molecule gave a dissociation constant (Kd) in the data set with GPC3 [5] of 9 nM.
In the data set with GPC3 [5], “CGUCAUCGGGUUGCUACCCAAGGCACCAGGAGGUGCGAUGACG (listed as RNA, chemistry not given here) [GRX2101, 78]” showed a Kd of 29.3 nM.
On to “CGUCAUCGGGUUGCUACCCAAGGACAAGAGUCGAUGACG (RNA aptamer, any chemical modification not given here, further chemistry not given here) [GRX8]”, for which, in the data set with GPC3 [2], the Ka is 61900 M⁻¹ s⁻¹. In the data set with GPC3 [6], the “binding activity when the lineal sequence is refolded” value is “improves”. In the data set with GPC3 [6] (FIG. 2), the “binding affinity to exogenously expressed GPC3” value is reported as “high binding affinity”. Also, the “stability of activity in freeze/thaw tests” value with GPC3 [6] (frequent freeze/thaw) is “stable and not affected by the frequent freeze/thaw tests”.
As for “DM1-CGTCATCGGGTTGCTACCCAAGGACAAGAGTCGATGACG [GRX26]”, in the data set with Hep3B xenograft [8] (2.5 mg/kg), the “% of body weight loss” value turned out to be 10.67% and the “Relative tumor volume growth (Day 28)” value came out at 0.69. Besides, in the data set with Hep3B xenograft [8] (10 mg/kg, IP/QD), the “% of body weight loss” value is given as 14.86% and the “Relative tumor volume growth (Day 28)” value worked out at 0.46.
With “CGUCAUCGGGUUGCUACCCAAGGUCAGGAGACGAUGACG (listed as RNA, chemistry not given here) [GRX8 with triple]”, the “need of refolding for maximal activity” value in [1] was “do not require refolding for maximal activity”. In the data set with GPC3 [2], the Ka came to 112000 M⁻¹ s⁻¹.
“CATTATCGGGTTGCTACCCAAGGACAAGAGTCGATGATG (listed as DNA, chemistry not fully specified) [Min5, 30]”: in the data set with GPC3 [5], the “binding activity to GPC3^+ HEK293 cells compared to full sequence of clone F14” value is given as “significantly increased” and the “GPC3 binding activity (MFI)” value was 19484. In addition, the “GPC3 binding activity (MFI)” value in the data set on GPC3^− HEK293 cells was determined as 946.
For “CGTCGTCGGGTTGCTACCCAAGGACAAGAGTCGACGACG (listed as DNA, chemistry not fully specified) [Min9.2, 33]”, the thermal stability entry in data set [4] was “thermally more stable”.
On to “CATTATCGGGTTGCTACCCGAGGACAAGAGTCGATGATG (listed as DNA, chemistry not fully specified) [Min6, 31]”, for which the “GPC3 binding activity (MFI)” value with GPC3 [5] is reported as 3619; with GPC3^− HEK293 cells, 507.
With “AAGCCATTATCGGGTTGCTACCCAAGGACAAGAGTCGATGATGCTT (listed as DNA, chemistry not fully specified) [Min4, 29]”, in the data set with GPC3 [5], the “binding activity to GPC3^+ HEK293 cells compared to full sequence of clone F14” value is reported as “significantly increased” and the “GPC3 binding activity (MFI)” value was 23261. For the same molecule, in the data set with GPC3^− HEK293 cells, the “GPC3 binding activity (MFI)” value came to 1072.

B1: GRX958 (ssRNA)
RNA: GACUAGAUCGGGUUGCUACCCAAGCUCCGGUUCAGAUCGAUGGAGGAUCUAGUC
modifications: fully 2'-OMe
Consider B1, for which the Kd with Glypican-3 (GPC3) (stem 2 replaced with alternative stem and loop) is 33.1 nM.
In the data set with Glypican-3 (GPC3) (stem 2 closed with 4-base loop, stem 1 open (new 5' and 3' ends)), CGGGAGUCCUAGGAAGGACGGGUUGCUACCCAAGUCCCG (ssRNA, fully 2'-OMe) [GRX2102] registered a dissociation constant Kd of 26.9 nM.
Molecule CGUCAUCGGGUUGCUACCCAAGGCACCAGGAGGUGCGAUGACG (ssRNA, fully 2'-OMe) [GRX2101] showed a Kd with Glypican-3 (GPC3) (stem 2 extended by 2 bp) of 29.3 nM.
For the molecule CGUCAUCGGGUUGCUACCCAAGGCCCAGGAGGGCGAUGACG (ssRNA, fully 2'-OMe) [GRX1187], binding in the data set with Glypican-3 (GPC3) (stem 2 extended by 1 bp) was put at a Kd of 64.2 nM.

B2: GGGAGACAAGAATAAAGCGAGTTTGAAGCCATTACCGGGTTGCTACCCAAGGACAAGAGTCGATGATGCTTAGCTAG (nucleic acid)
chain: GGGAGACAAGAATAAAGCGAGTTTGAAGCCATTACCGGGTTGCTACCCAAGGACAAGAGTCGATGATGCTTAGCTAG
modifications: listed as DNA, chemistry not fully specified
notes: 12
Take B2: the “GPC3 binding activity (MFI)” value is recorded as 5050 in the data set with GPC3 [5] and 1040 in the data set on GPC3^− HEK293 cells.

A word on the Kd: it is a measure of binding affinity in units of concentration.
